Assays:
[1] = stability against hydrolysis; assay type: physicochemical; conditions: dissolved in aqueous (25%) tetrahydrofuran, under reflux
Source text: When the R1-5 -groups form Bi--C bonds, aryl grou7ps are generally preferred. At least one of the R1-5 -groups should be an aryl group or substituted aryl group. The term "aryl group" here means any aromatic hydrocarbon ring system or aromatic heterocyclic system. Typical ring systems include for example benzene, naphthalene, indene, fluorene, phenalene, phenanthrene, anthracene, fluoranthene, acephenanthrylene, aceanthrylene, triphenylene, pyrene, chrysene, naphthacene, pleiadene, picene, perylene, pentaphene, pentacene, tetraphenylene, hexaphene, hexacene, rubicene, coronene, trinaphthylene, heptaphene, rubicene, coronene, heptacene, pyranthrene, ovalene, furan, thiophene, thianthrene, pyran, isobenzofuran, chromene, xanthene, phenoxathin, pyrrole, imidazole, pyrazole, isothiazole, isoxazole, pyridine, pyrazine, pyrimidine, pyradizine, indolizine, isoindole, indole, indazole, purine, quinolizine, isocaunoline, quinoline, phtalazine, naphyhyridine, quinoxaline, quinazoline, cinnoline, pteridine, carbazole, β-carboline, phenanthridine, acridine, permidine, phenanthroline, phenazine, phenarsazine, phenothiazine, furazan, phenoxazine, isochroman, chroman, indoline and iso-indoline.

[2] = system: Helicobacter pylori; assay: Minimal Inhibitory Concentrations against Helicobacter pylori on agar plates; assay type: cell-based
Description: Activity of bismuth compounds against Helicobarter pylori
Various bismuth compounds were tested in different concentrations against Helicobacter pylori on agar plates. Minimal Inhibitory Concentrations (MIC--values) are given in mg substance per litre.

Molecule | stability against hydrolysis [1] | Minimal Inhibitory Concentration (MIC - value) [2] [mg substance per litre]
c1cc[c]([Bi]([c]2ccccc2)[c]2ccccc2)cc1 [triphenylbismuth] | stable under reflux for many days | 
Triphenylbismuthine difluoride [Example 16] |  | 8
Tris(2,4,6trimethylphenyl)bismuthine dichloride [Example 15] |  | ≤ 0.25
O=[N+]([O-])[O-].O=[N+]([O-])[O-].O=[N+]([O-])[O-].O=[N+]([O-])[O-].[Bi+3].[Bi+3].[Bi+3].[Bi+3].[Bi+3].[O-2].[OH-].[OH-].[OH-].[OH-].[OH-].[OH-].[OH-].[OH-].[OH-] [Bismuth subnitrate, bismuth hydroxide nitrate oxide] |  | 32

From patent US6303101A, “Bismuth compounds” (Nycomed Imaging AS, priority 1995, dated 2001)
